Measured values from patent publication US7928096B2, “Polydiazeniumdiolated cyclic polyamines with polyphasic nitric oxide release and related compounds, compositions comprising same and methods of using same” (The United States of America, as represented by the …, priority 2002, dated 2011).
Like-named read-outs stand apart in the source and are kept apart here.

How the values were obtained:
[1] = NO release monitored by chemiluminescence of effluent gas stream treated with ozone; settings: pH 7.4 phosphate buffer at 37° C.
Experimental: The diazeniumdiolated compound described in Example 4 was dissolved in pH 7.4 phosphate buffer at 37° C., and the release of NO was monitored by detection of the chemiluminescence generated by treatment of the effluent gas steam with ozone.
The diazeniumdiolated compound described in Example 5 was dissolved in pH 7.4 phosphate buffer at 37° C., and the release of NO was monitored by detection of the chemiluminescence generated by treatment of the effluent gas steam with ozone.
The diazeniumdiolated compound described in Example 6 was dissolved in pH 7.4 phosphate buffer at 37° C., and the release of NO was monitored by detection of the chemiluminescence generated by treatment of the effluent gas steam with ozone.
The diazeniumdiolated compound described in Example 7 was dissolved in pH 7.4 phosphate buffer at 37° C., and the release of NO was monitored by detection of the chemiluminescence generated by treatment of the effluent gas steam with ozone.
The diazeniumdiolated compound described in Example 9 was dissolved in pH 7.4 phosphate buffer at 37° C., and the release of NO was monitored by detection of the chemiluminescence generated by treatment of the effluent gas steam with ozone.

[2] = Total moles of NO released by chemiluminescence; format: physicochemical; settings: for Ideal moles of NO released: theoretical (ideal) amount; for Moles of NO released: chemiluminescence
Experimental: (§1) The total moles of NO released were determined by chemiluminescence as previously described in Hrabie et al. (New Nitric Oxide Releasing Zwitterions Derived from Polyamines. J. Org. Chem., 1993, 58, 1472-1476). The NO release rates for the compounds prepared in Example 1 and Example 2 were determined by UV spectrophotometry by adding a stock solution of the compound in 0.01 M NaOH to pH 7.4 phosphate buffer (0.1 M) contained in a standard UV cell to generate final solutions at concentrations in the range of 50 to 100 μM. The rate of NO release was determined by the decrease in 250-252 nm absorbance over time at 37° C. as previously described by Keefer et al. (“NONOates” (1-Substituted Diazen-1-ium-1,2-diolates) as Nitric Oxide Donors: Convenient Nitric Oxide Dosage Forms. Methods in Enzymology, 1996, 268, 281-293). The results of the NO release of piperazine bisdiazeniumdiolate as discussed in Hrabie et al. (Organic Preparations and Procedures International, 1999, 31(2), 189-192) are included as a comparative example.

[3] = comparative example from Hrabie et al. 1999; cited from earlier work
[4] = NO release rate by UV spectrophotometry (decrease in 250-252 nm absorbance); format: physicochemical; settings: phosphate buffer, pH 7.4, pH 7.4 phosphate buffer (0.1 M), 37° C., 50 to 100 μM
From the text: The invention provides a cyclic polyamine compound comprising at least three amino groups, wherein at least two of the amino groups are covalently bound to a nitrogen oxide-releasing group of the formula N2O2M, in which M is a pharmaceutically acceptable cation. The invention also provides a compound that has a polyphasic release of nitric oxide, wherein any subsequent release of nitric oxide has a rate that is at least about 3 times smaller than an initial rate of nitric oxide release. The rate of NO release can be determined by any suitable method. For example, the rate of NO release can be measured by the decrease in 250-252 nm absorbance over time at 37° C. as previously described by Keefer et al., “NONOates” (1-Substituted Diazen-1-ium-1,2-diolates) as Nitric Oxide Donors: Convenient Nitric Oxide Dosage Forms. Methods in Enzymology, 1996, 268, 281-293.
as §1

[5] = read-out: t1/2 of initial phase
[6] = read-out: t1/2 of second phase (converted)

Ideal moles of NO released [2] [mol]	Moles of NO released [2] [mol]	half-life [4, 5] [h]	half-life [4, 6] [h]	melting point	Compound	biphasic release of NO, first rate of release [1] [min]	biphasic release of NO, second rate of release [1] [min]	Moles of NO released [3] [mol]
					O=NN([O-])N1CCN2CCN(CCN(N([O-])N=O)CC1)C(=O)C2=O.[Na+].[Na+] [Example 6, 1,4-bis(diazeniumdiolated)-1,4,7,10-tetraazabicyclo[8.2.2]tetradecane-11,12-dione, disodium salt]	1.0	41.5	
					CCOC(=O)N1CCN(/[N+]([O-])=N/[O-])CCN(C(=O)OCC)CCN(/[N+]([O-])=N/[O-])CC1.[Na+].[Na+] [Example 7, 1,7-diazeniumdiolated-4,10-bis(ethoxycarbonyl)-1,4,7,10-tetraazacyclododecane, disodium salt]	0.36	60.9	
4	3.3	0.0283	8.8	183 to 185 °C (dec.)	[Na+].[Na+].[O-]/N=[N+](\[O-])N1CCNCCNCCN(/[N+]([O-])=N/[O-])CC1 [Example 2, 1,4,7,10-tetraazacyclododecane-1,4-bisdiazeniumdiolate]			
4	3.3	0.0283	8.9	181 to 182 °C	[Na+].[Na+].[O-]/N=[N+](\[O-])N1CCCN(/[N+]([O-])=N/[O-])CCNCCCNCC1 [Example 1, 1,4,8,11-tetraazacyclotetradecane-1,11-bisdiazeniumdiolate]			
					O=C1C(=O)N2CCCN([N+]([O-])=N[O-])CCN([N+]([O-])=N[O-])CCCN1CC2.[Na+].[Na+] [Example 9, 1,4-bis(diazeniumdiolated)-1,5,8,12-tetraazabicyclo[10.2.2.]hexadecane-13,14-dione, disodium salt]	1.1	161	

Compound	Ideal moles of NO released [2] [mol]	Moles of NO released [2] [mol]	half-life [4, 5] [h]	half-life [4, 6] [h]	melting point	biphasic release of NO, first rate of release [1] [min]	biphasic release of NO, second rate of release [1] [min]	Moles of NO released [3] [mol]
piperazine bisdiazeniumdiolate [reference compound]	4							4.3
